For 24 compounds, EC50 results are on record in patent publication US9708321B2, “Spiro-quinazolinone derivatives and their use as positive allosteric modulators of mGluR4” (Merck Patent GmbH, priority 2013, dated 2017).

Like-named read-outs stand apart in the source and are kept apart here. A value given as a limit tells only on which side of the number the result lay.

The assay addresses T1, hmGluR4 (Homo sapiens, UniProt Q14833).
T1 construct: host or cells: HEK293T
Description: HEK-293 mGluR4 cells cAMP assay with EC20 L-Glutamate (HTRF). It counts as cell-based. The method, then: II. Biological Assays HEK-293 mGluR4 Cells cAMP Assay with EC20 L-Glutamate
Using mGluR4 suspension cell format, 10 μM Forskolin (final conc.) used to induce the production of cAMP.
Test the positive allosteric activity of the compounds of the invention at EC20 (2.3 μM for mGluR4 and 4.3 μM for mGluR6) L-Glutamate,
cAMP dymanic2 kit is intended for the direct quantitative determination of cAMP and its principle is based on HTRF technology.
• Cells: HEK293T mGluR4 cells from Multispan, cat# C1191a lot# C1191a-040910 • Culture Media: DMEM+GlutaMAX1+10% dialyzed FBS, 100 mM Sodium Pyruvate, 1 ug/ml puromycin. • Glutamine Starvation Media: DMEM without GlutaMax for plating the cells (glutamine starvation overnight). DMEM high Glucose, without phenol red, glutamine, or sodium pyruvate+10% dialyzed FBS, 100 mM Sodium Pyruvate, 1 ug/ml puromycin, 10 mM Hepes. • Hanks' balanced Salt Solution, HBSS from Invitrogen • Greiner 384 well white low volume high base plate (784075) • cAMP dynamic2 from Cisbio Bioassays • Glutamate: L-Glutamaic acid, monosodium salt, Monohydrate, 98%, from Sigma-Aldrich • Cell Preparation: split cells at 80%-90% confluence. The following day, rinse the cells with DMEM without GlutaMax and change to Glutamine Starvation Media. Incubate overnight. Assay: • Prepare compound plate: Perform compound serial dilution (uses Matrix 4341 plate), using the Bravo liquid handling platform protocol (compound serial dilution) which adds DMSO to columns 1-24 (except cols. 3 and 13). Serial dilute compounds located in columns 3 and 13 at a 1:3 ratio; 10 points (10 ul of 3 mM compound into 20 ul DMSO). Use the Bravo liquid handling platform to transfer 1 ul from the serial dilution plate into Matrix 4314 plate to create stamp plates. Prepare Compound Dilution Buffer: • Dilute 20 mM Forskolin (in DMSO) stock solution in HBSS buffer to make a 20 uM solution (forskolin buffer; 2× solution). To the forskolin buffer, add glutamate to a concentration of 8 uM (compound dilution buffer; 2× EC20 glutamate and forskolin). • Using a multidrop, add 50 ul/well of compound dilution buffer to columns 1-22 of the 2 ul compound stamp plate. Columns 23 and 24 receive forskolin buffer containing 400 uM glutamate (EC100 glutamate; 2× solution). Columns 1 and 2 receive compound dilution buffer containing EC20 glutamate, which is the basal control. • Add a glutamate dose response to row P of compound plate. Prepare the dose response by serial diluting glutamate at a 1:3 ratio in forskolin buffer starting at 2 mM glutamate (2×). Dilute the glutamate 9 times and transfer to compound plate. Prepare Cell Plates: • Harvest cells: Rinse cells with pre-warmed HBSS-10 mM HEPES (without Ca Mg) and dissociate the cells from the flask with versene. Centrifuge the cells, remove the supernatant and suspend in pre-warmed HBSS+10 mM Hepes. Count the cells and centrifuge. Remove the supernatant and suspend the cells in HBSS+Hepes (with Ca Mg) at a density of 400,000 cells/ml. Perform Assay: • Dispense 5 ul from the diluted compound plate into Greiner low volume cell plate using the Bravo liquid handling platform. Using a Multidrop with the small tubing cassette, dispense 5 ul of cells (2000 cells/well) onto the compounds contained in the low volume plates. Incubate the cells at 37° C., 5% CO2 for 30 minutes in the incubator. Assay for cAMP: • Prepare cAMP-d2 and anti-cAMP-Crytate according to the instructions for the two step assay (see Cisbio manual) and add 10 ul of the mixed reagent to each well of the assay plate using the Multidrop. Incubate at room temperature for 60 minutes and read on the Envision plate reader using the mGluR low volume cAMP HTRF 384 well protocol.
Background: Changes in cAMP serve as a functional read-out for many G protein-coupled receptors.

Where [1] appears, read: positive allosteric activity at EC20 L-Glutamate, 10 μM Forskolin, HEK293T mGluR4 cells, cAMP HTRF, read-out: hrmGluR4/HEK293T-hmGluR4 (EC50).

T1 sequence (Q14833 33-912): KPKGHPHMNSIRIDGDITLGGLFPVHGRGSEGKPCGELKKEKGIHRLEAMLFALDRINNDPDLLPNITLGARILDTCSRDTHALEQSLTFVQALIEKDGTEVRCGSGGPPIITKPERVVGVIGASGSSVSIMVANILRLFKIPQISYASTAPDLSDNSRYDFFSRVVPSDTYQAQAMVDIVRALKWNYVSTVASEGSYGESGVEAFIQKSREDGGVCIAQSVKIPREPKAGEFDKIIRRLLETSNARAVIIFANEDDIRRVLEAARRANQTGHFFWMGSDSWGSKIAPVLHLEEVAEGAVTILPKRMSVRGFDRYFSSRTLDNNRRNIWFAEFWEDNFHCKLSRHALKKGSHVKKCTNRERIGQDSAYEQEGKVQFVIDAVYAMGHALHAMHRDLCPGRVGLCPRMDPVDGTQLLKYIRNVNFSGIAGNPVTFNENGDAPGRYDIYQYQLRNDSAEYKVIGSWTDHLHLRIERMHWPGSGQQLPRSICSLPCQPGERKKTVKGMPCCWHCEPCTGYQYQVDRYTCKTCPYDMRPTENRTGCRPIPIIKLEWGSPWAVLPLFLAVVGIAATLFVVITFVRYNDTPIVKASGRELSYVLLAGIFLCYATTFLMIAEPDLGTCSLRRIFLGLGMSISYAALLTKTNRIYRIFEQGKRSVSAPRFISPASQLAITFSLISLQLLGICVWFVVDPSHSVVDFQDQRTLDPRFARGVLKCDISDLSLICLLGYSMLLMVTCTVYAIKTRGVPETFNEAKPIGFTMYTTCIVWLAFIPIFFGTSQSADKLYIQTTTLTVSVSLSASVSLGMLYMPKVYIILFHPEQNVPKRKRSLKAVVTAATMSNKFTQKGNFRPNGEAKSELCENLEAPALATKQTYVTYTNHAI

On to `CCC(c1ccc(F)c(F)c1)N1CCC2(CC1)Nc1cc(Br)ccc1C(=O)N2c1ccc(OC(F)(F)F)cc1` (stereo not drawn) [Compound 22, 7′-Bromo-1-(1-(3,4-difluorophenyl)propyl)-3′-(4-(trifluoromethoxy)phenyl)-1′H-spiro[piperidine-4,2′-quinazolin]-4′(3′H)-one], for which the EC50 under setting [1] is less than 1000 nM.

Consider `COc1ccc(N2C(=O)c3ccccc3NC23CN(Cc2ccc4ccccc4c2)C3)cc1` [Compound 90, 3′-(4-Methoxyphenyl)-1-(naphthalen-2-ylmethyl)-1′H-spiro[azetidine-3,2′-quinazolin]-4′(3′H)-one], for which the EC50 under setting [1] is 1000 to 10000 nM.

For the compound `COc1ccc(N2C(=O)c3ccccc3NC23CCN(Cc2ccccc2C#N)CC3)cc1` [Compound 116, 2-((3′-(4-Methoxyphenyl)-4′-oxo-3′,4′-dihydro-1′H-spiro[piperidine-4,2′-quinazolin]-1-yl)methyl)benzonitrile], under setting [1], the EC50 lay in the range of 1000 to 10000 nM.

On to `COc1cccc(N2C(=O)c3ccccc3NC23CCN(Cc2cc(Cl)ccc2Cl)CC3)c1` [Compound 115, 1-(2,5-Dichlorobenzyl)-3′-(3-methoxyphenyl)-1′H-spiro[piperidine-4,2′-quinazolin]-4′(3′H)-one], for which the EC50 under setting [1] lay within 1000 to 10000 nM.

`O=C1c2ccc(Br)cc2NC2(CCN(Cc3ccc(F)c(F)c3)CC2)N1c1ccc(C(F)(F)F)cc1` [Compound 52, 7′-Bromo-1-(3,4-difluorobenzyl)-3′-(4-(trifluoromethyl)phenyl)-1′H-spiro[piperidine-4,2′-quinazolin]-4′(3′H)-one]: the EC50 under setting [1] was less than 1000 nM.

In the case of `COc1ccc(N2C(=O)c3ccccc3NC23CCN(Cc2ccccc2C(F)(F)F)CC3)cc1` [Compound 66, 3′-(4-Methoxyphenyl)-1-(2-(trifluoromethyl)benzyl)-1′H-spiro[piperidine-4,2′-quinazolin]-4′(3′H)-one], the EC50 under setting [1] is 1000 to 10000 nM.

Take `COc1ccc(N2C(=O)c3ccccc3NC23CN(Cc2ccc(C)cc2)C3)cc1` [Compound 72, 3′-(4-Methoxyphenyl)-1-(4-methylbenzyl)-1′H-spiro[azetidine-3,2′-quinazolin]-4′(3′H)-one]: under setting [1], the EC50 fell in the range of 1000 to 10000 nM.

Turning to `O=C1c2ccc(Br)cc2NC2(CCN(Cc3cnc(Br)s3)CC2)N1c1ccc(OC(F)(F)F)cc1` [Compound 110, 7′-Bromo-1-((2-bromothiazol-5-yl)methyl)-3′-(4-(trifluoromethoxy)phenyl)-1′H-spiro[piperidine-4,2′-quinazolin]-4′(3′H)-one], the EC50 under setting [1] was in the range of 1000 to 10000 nM.

In the case of `O=C1c2ccc(F)cc2CC2(CCN(Cc3ccc(F)c(F)c3)CC2)N1c1ccc(OC(F)(F)F)cc1` [Compound 127, 1′-(3,4-difluorobenzyl)-6-fluoro-2-(4-(trifluoromethoxy)phenyl)-2,4-dihydro-1H-spiro[isoquinoline-3,4′-piperidin]-1-one], under setting [1], the EC50 is 1000 to 10000 nM.

Regarding `O=C1c2ccc(Br)cc2NC2(CCN(C(c3ccc(F)c(F)c3)C(F)(F)F)CC2)N1c1ccc(OC(F)(F)F)cc1` (stereo not drawn) [Compound 107, 7′-Bromo-1-(1-(3,4-difluorophenyl)-2,2,2-trifluoroethyl)-3′-(4-(trifluoromethoxy)phenyl)-1′H-spiro[piperidine-4,2′-quinazolin]-4′(3′H)-one], the EC50 under setting [1] was less than 1000 nM.

Take `O=C1c2ccc(Br)cc2NC2(CCN(Cc3ccccc3O)CC2)N1c1ccc(OC(F)(F)F)cc1` [Compound 49, 7′-Bromo-1-(2-hydroxybenzyl)-3′-(4-(trifluoromethoxy)phenyl)-1′H-spiro[piperidine-4,2′-quinazolin]-4′(3′H)-one]: the EC50 under setting [1] was less than 1000 nM.

Turning to `COc1ccc(N2C(=O)c3ccc(Cl)cc3NC23CCN(Cc2cccc(C#N)c2)CC3)cc1` [Compound 75, 3-((7′-Chloro-3′-(4-methoxyphenyl)-4′-oxo-3′,4′-dihydro-1′H-spiro[piperidine-4,2′-quinazolin]-1-yl)methyl)benzonitrile], under setting [1], the EC50 fell in the range of 1000 to 10000 nM.

As to `COc1ccc(N2C(=O)c3ccc(Br)cc3NC23CCN(Cc2ccc(F)c(F)c2)CC3)cc1F` [Compound 24, 7′-Bromo-1-(3,4-difluorobenzyl)-3′-(3-fluoro-4-methoxyphenyl)-1′H-spiro[piperidine-4,2′-quinazolin]-4′(3′H)-one], the EC50 was less than 1000 nM.

Turning to `CC(C)OC(=O)c1ccc2c(c1)NC1(CCN(Cc3ccc(F)c(F)c3)CC1)N(c1ccc(OC(F)(F)F)cc1)C2=O` [Compound 31, Isopropyl 1-(3,4-difluorobenzyl)-4′-oxo-3′-(4-(trifluoromethoxy)phenyl)-3′,4′-dihydro-1′H-spiro[piperidine-4,2′-quinazoline]-7′-carboxylate], the EC50 under setting [1] was less than 1000 nM.

On to `CCOC(=O)c1ccc2c(c1)NC1(CN(Cc3ccccc3Cl)C1)N(c1ccc(OC(F)(F)F)cc1)C2=O` [Compound 18, Ethyl 1-(2-chlorobenzyl)-4′-oxo-3′-(4-(trifluoromethoxy)phenyl)-3′,4′-dihydro-1′H-spiro[azetidine-3,2′-quinazoline]-7′-carboxylate], for which the EC50 under setting [1] was less than 1000 nM.

For the compound `COc1ccc(N2C(=O)c3ccccc3NC23CCN(Cc2cc(F)cc(F)c2)CC3)cc1` [Compound 80, 1-(3,5-Difluorobenzyl)-3′-(4-methoxyphenyl)-1′H-spiro[piperidine-4,2′-quinazolin]-4′(3′H)-one], the EC50 under setting [1] fell in the range of 1000 to 10000 nM.

With `COc1ccc(N2C(=O)c3ccc(Br)cc3NC23CCN(Cc2ccc(F)c(F)c2)CC3)cc1` [Compound 17, 7′-Bromo-1-(3,4-difluorobenzyl)-3′-(4-methoxyphenyl)-1′H-spiro[piperidine-4,2′-quinazolin]-4′(3′H)-one], under setting [1], the EC50 is less than 1000 nM.

For `COc1ccc(N2C(=O)c3ccc(OC)cc3NC23CCN(Cc2ccc(F)c(F)c2)CC3)cc1` [Compound 39, 1-(3,4-Difluorobenzyl)-7′-methoxy-3′-(4-methoxyphenyl)-1′H-spiro[piperidine-4,2′-quinazolin]-4′(3′H)-one], the EC50 under setting [1] was less than 1000 nM.

As to `O=C1c2ccc(Br)cc2NC2(CCN(C(c3cccc(F)c3)C(F)(F)F)CC2)N1c1ccc(OC(F)(F)F)cc1` (stereo not drawn) [Compound 43, 7′-Bromo-1-(2,2,2-trifluoro-1-(3-fluorophenyl)ethyl)-3′-(4-(trifluoromethoxy)phenyl)-1′H-spiro[piperidine-4,2′-quinazolin]-4′(3′H)-one], under setting [1], the EC50 was less than 1000 nM.

As to `COc1ccc(N2C(=O)c3ccccc3NC23CCN(Cc2cc(C)cc(C)c2)CC3)cc1` [Compound 105, 1-(3,5-Dimethylbenzyl)-3′-(4-methoxyphenyl)-1′H-spiro[piperidine-4,2′-quinazolin]-4′(3′H)-one], under setting [1], the EC50 lay in the range of 1000 to 10000 nM.

As for `COc1ccc(N2C(=O)c3ccccc3NC23CCN(Cc2cccc(Cl)c2)CC3)cc1` [Compound 104, 1-(3-Chlorobenzyl)-3′-(4-methoxyphenyl)-1′H-spiro[piperidine-4,2′-quinazolin]-4′(3′H)-one], under setting [1], the EC50 was in the range of 1000 to 10000 nM.

Turning to `COC(=O)c1ccc2c(c1)NC1(CCN(Cc3ccccc3)CC1)N(c1ccc(OC)cc1)C2=O` [Compound 15, Methyl 1-benzyl-3′-(4-methoxyphenyl)-4′-oxo-3′,4′-dihydro-1′H-spiro[piperidine-4,2′-quinazoline]-7′-carboxylate], under setting [1], the EC50 was less than 1000 nM.

Consider `COc1ccc(N2C(=O)c3ccc(F)cc3NC23CCN(Cc2ccc(F)c(F)c2)CC3)cc1` [Compound 23, 1-(3,4-Difluorobenzyl)-7′-fluoro-3′-(4-methoxyphenyl)-1′H-spiro[piperidine-4,2′-quinazolin]-4′(3′H)-one], for which the EC50 under setting [1] was less than 1000 nM.

For `COc1ccc(N2C(=O)c3ccccc3NC23CN(Cc2ccccc2F)C3)cc1` [Compound 84, 1-(2-Fluorobenzyl)-3′-(4-methoxyphenyl)-1′H-spiro[azetidine-3,2′-quinazolin]-4′(3′H)-one], the EC50 under setting [1] lay within 1000 to 10000 nM.
